Data set [1] has as its target T1, Beta-secretase 1 (Homo sapiens, UniProt P56817).
The next data set addresses T2, Beta-secretase 2 (Homo sapiens, UniProt Q9Y5Z0).
T2 sequence (Q9Y5Z0 whole entry): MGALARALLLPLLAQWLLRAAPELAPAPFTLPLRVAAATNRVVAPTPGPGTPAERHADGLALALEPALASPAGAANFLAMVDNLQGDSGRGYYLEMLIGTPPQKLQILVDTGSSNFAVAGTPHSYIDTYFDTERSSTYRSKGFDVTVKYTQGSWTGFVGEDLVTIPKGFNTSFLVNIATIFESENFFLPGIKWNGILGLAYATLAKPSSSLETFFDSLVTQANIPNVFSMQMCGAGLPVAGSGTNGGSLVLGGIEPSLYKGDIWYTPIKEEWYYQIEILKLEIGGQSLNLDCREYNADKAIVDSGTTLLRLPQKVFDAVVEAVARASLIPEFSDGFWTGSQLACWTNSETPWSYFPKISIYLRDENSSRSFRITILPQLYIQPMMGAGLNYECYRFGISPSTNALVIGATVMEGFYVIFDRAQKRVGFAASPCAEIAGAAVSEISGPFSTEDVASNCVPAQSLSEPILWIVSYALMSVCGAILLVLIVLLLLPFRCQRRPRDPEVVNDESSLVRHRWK

Data set [2] concerns the target T1, Beta-secretase 1. This is another data set of the same source.
Description: Inhibition of BACE1 in HEK293 cells expressing APP swedish and london mutant assessed as decrease of amyloid-beta40 level after 4 hrs by electrochemiluminescence-based sandwich ELISA
Data set [3] in a line: Ratio of drug level in brain to plasma in rat at 10 mg/kg, po. It counts as ADME, organism-based. The arrangement: dose 10 mg/kg, route oral. To be noted: read-out: BPR.
Data set [4] in a line: AUC (0 to 6 hrs) in rat at 10 mg/kg, po. Further details: time < 6 hr, dose 10 mg/kg, route oral. To be noted: plasma. It counts as ADME, organism-based.
Data set [5] can be described thus: Ratio of drug level in brain to plasma in Sprague-Dawley rat at 30 mg/kg, po. To be noted: read-out: BPR. Further details: dose 30 mg/kg, route oral. It counts as ADME, organism-based.
The next data set deals with Plasma. Kind of data set: Plasma concentration in Sprague-Dawley rat at 30 mg/kg, po. It counts as ADME, organism-based. The arrangement: dose 30 mg/kg, route oral. To be noted: in vivo.
The subject of data set [6] is Rattus norvegicus. Description: Antialzheimer activity in Sprague-Dawley rat assessed as reduction in amyloid beta40 level in plasma at 30 mg/kg, po after 3 hrs relative to vehicle treated control. It counts as functional. Further details: scale not given: the % may be the effect or the level left.
The test system of data set [7] is Rattus norvegicus. Description: Antialzheimer activity in Sprague-Dawley rat assessed as reduction in amyloid beta40 level in CSF at 30 mg/kg, po after 3 hrs relative to vehicle treated control. It counts as functional. Further details: scale not given: the % may be the effect or the level left.

Consider 33 compounds from ChEMBL document CHEMBL2010674, “Structure based design of iminohydantoin BACE1 inhibitors: identification of an orally available, centrally active BACE1 inhibitor” (Bioorg Med Chem Lett, 2012).

T1 sequence (P56817 whole entry): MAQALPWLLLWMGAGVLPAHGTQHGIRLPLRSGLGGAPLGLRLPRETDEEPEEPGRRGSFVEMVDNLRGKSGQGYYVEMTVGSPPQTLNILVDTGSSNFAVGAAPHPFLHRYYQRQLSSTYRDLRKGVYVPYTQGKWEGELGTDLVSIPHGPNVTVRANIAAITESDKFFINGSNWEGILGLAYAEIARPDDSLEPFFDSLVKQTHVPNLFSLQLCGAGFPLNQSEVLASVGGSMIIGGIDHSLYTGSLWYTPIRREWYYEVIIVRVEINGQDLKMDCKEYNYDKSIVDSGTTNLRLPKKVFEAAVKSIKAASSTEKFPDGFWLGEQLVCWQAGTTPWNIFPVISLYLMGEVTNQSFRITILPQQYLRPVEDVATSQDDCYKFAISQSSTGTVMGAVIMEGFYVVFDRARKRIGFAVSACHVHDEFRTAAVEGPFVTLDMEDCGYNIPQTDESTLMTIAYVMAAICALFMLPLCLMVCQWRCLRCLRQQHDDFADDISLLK

For orientation: Ki means the dissociation constant of the complex between target and ligand, obtained from inhibition or displacement. `CN1C(=N)NC(c2ccccc2)(c2cccc(-c3cncc(C#N)c3)c2)C1=O` (racemic) displayed a Ki at Beta-secretase 1 [1] of 470 nM. By IC50 is commonly meant the concentration at which inhibition is half-maximal. Consider `CN1C(=N)NC(c2cccc(-c3cncc(F)c3)c2)(C2CC2)C1=O` (configuration not stated), for which the Ki on Beta-secretase 2 turned out to be 139 nM; on Beta-secretase 1 [1] it was 160 nM. This compound also gave a half-maximal inhibitory concentration (IC50) at Beta-secretase 1 [2] of 800 nM. Compound `CN1C(=N)NC(C)(c2cccc(-c3cccc(Cl)c3)c2)C1=O` (configuration not stated) displayed a Ki at Beta-secretase 1 [1] of 720 nM. The compound also showed an IC50 against Beta-secretase 1 [2] of 4800 nM. With `CN1C(=N)NC(c2cccc(-c3cccc(Cl)c3)c2)(C2CC2)C1=O` (configuration not stated), on Beta-secretase 1 [1], affinity was put at a Ki of 47 nM. Further, the IC50 against Beta-secretase 1 [2] is 1900 nM. `CCC1(c2cccc(-c3cccc(Cl)c3)c2)NC(=N)N(C)C1=O` (configuration not stated) came in with a Ki at Beta-secretase 1 [1] of 450 nM. Further, on Beta-secretase 1 [2], the IC50 was determined as 5300 nM. As for `CCOc1cccc(-c2cccc(C3(c4ccccc4)N=C(N)N(C)C3=O)c2)c1` (racemic), the affinity at Beta-secretase 1 [1], expressed as Ki, was 460 nM. Consider `CN1C(=N)NC(c2cccnc2)(c2cccc(-c3cccc(Cl)c3)c2)C1=O` (configuration not stated), for which affinity at Beta-secretase 1 [1] was put at a Ki of 170 nM. At Beta-secretase 1 [2], this compound displayed an IC50 of 4400 nM. The compound `CN1C(=N)NC(c2ccccc2)(c2cccc(-c3cnccn3)c2)C1=O` (racemic) had a Ki on Beta-secretase 1 [1] of 310 nM. `COc1ccc(-c2cccc(C3(c4ccccc4)NC(=N)N(C)C3=O)c2)cc1` (racemic) registered a Ki on Beta-secretase 1 [1] of 3800 nM. For `CN1C(=N)NC(c2ccccc2)(c2cccc(-c3ccccc3)c2)C1=O` (racemic), at Beta-secretase 1 [1], the affinity corresponds to a Ki of 3300 nM. A word on the AUC(0-t): it is exposure summed from dosing to a finite time, without extrapolation to infinity. Consider `CC#Cc1cncc(-c2cccc([C@@]3(C4CC4)NC(=N)N(C)C3=O)c2)c1`, for which the figures for the Kp in [3] and in [5] were 0.3 and 0.2, respectively. In [4], the AUC(0-t) at 6 h turned out to be 17.9 µM·h. The Ki on Beta-secretase 1 [1] was 5.4 nM. For the same compound, 82 nM corresponded to half-maximal inhibition against Beta-secretase 1 [2] (IC50). This compound also returned a concentration in the data set with Plasma of 4.2 µM. For the same compound, the Activity with Rattus norvegicus [6] is listed as 85%; with Rattus norvegicus [7], 54%. Regarding `CN1C(=N)NC(c2cccc(-c3cc(Cl)cc(Cl)c3)c2)(C2CC2)C1=O` (configuration not stated), the Ki at Beta-secretase 1 [1] is 30 nM. The same compound showed an IC50 against Beta-secretase 1 [2] of 2400 nM.

Turning to `CN1C(=N)NC(c2cccc(-c3cncc(C#N)c3)c2)(C2CC2)C1=O` (configuration not stated), the results for the Ki at Beta-secretase 2 and at Beta-secretase 1 [1] were 170 nM and 270 nM, respectively. On Beta-secretase 1 [2], this compound had an IC50 of 610 nM. For the compound `CN1C(=O)C(c2ccccc2)(c2cccc(Cl)c2)N=C1N` (racemic), the Ki at Beta-secretase 1 [1] was 300 nM. As for `CN1C(=N)NC(c2cccc(-c3cccc(C#N)c3)c2)(C2CC2)C1=O` (configuration not stated), the Ki was 30 nM at Beta-secretase 2 and 130 nM on Beta-secretase 1 [1]. The 50% inhibitory concentration (IC50) against Beta-secretase 1 [2] is 940 nM. On to `CN1C(=N)NC(c2ccncc2)(c2cccc(-c3cccc(Cl)c3)c2)C1=O` (configuration not stated), for which the Ki at Beta-secretase 1 [1] is more than 10000 nM. As for `Cc1cncc(-c2cccc(C3(c4ccccc4)NC(=N)N(C)C3=O)c2)c1` (racemic), affinity at Beta-secretase 1 [1] was put at a Ki of 430 nM. Same read-out and setting: the same measure for `CN1C(=N)NC(c2ccccc2)(c2cccc(-c3cncc(F)c3)c2)C1=O` (racemic): 290 nM. As for `Cc1cncc(-c2cccc(C3(C4CC4)NC(=N)N(C)C3=O)c2)c1` (configuration not stated), the Ki on Beta-secretase 2 stood at 68 nM; at Beta-secretase 1 [1], 250 nM. Moreover, the IC50 on Beta-secretase 1 [2] worked out at 640 nM. At Beta-secretase 1 [1], `CN1C(=N)NC(c2cncnc2)(c2cccc(-c3cccc(Cl)c3)c2)C1=O` (configuration not stated) came in with a Ki of 830 nM. This compound also had an IC50 against Beta-secretase 1 [2] of 21000 nM. For the compound `COc1cncc(-c2cccc(C3(C4CC4)NC(=N)N(C)C3=O)c2)c1` (configuration not stated), the Ki at Beta-secretase 2 was 11 nM; on Beta-secretase 1 [1], 100 nM. In addition, half-maximal inhibition against Beta-secretase 1 [2] (IC50) was put at 390 nM. For the compound `CN1C(=N)NC(c2cccc(-c3cccc(Cl)c3)c2)(c2ccccn2)C1=O` (configuration not stated), the Ki at Beta-secretase 1 [1] came to 860 nM. Moreover, half-maximal inhibition against Beta-secretase 1 [2] (IC50) was put at 5900 nM. As to `CN1C(=O)C(c2ccccc2)(c2cccc(-c3ccncc3)c2)N=C1N` (racemic), the Ki at Beta-secretase 1 [1] was 3800 nM. With `COc1cccc(-c2cccc(C3(C4CC4)NC(=N)N(C)C3=O)c2)c1` (configuration not stated), the Ki on Beta-secretase 2 was 7.8 nM. Compound `CN1C(=N)NC(c2cccc(-c3cccc(Cl)c3)c2)(C2CCCC2)C1=O` (configuration not stated) had a Ki at Beta-secretase 1 [1] of 470 nM. At Beta-secretase 1 [2], the IC50 was found to be 6900 nM. With `CN1C(=N)N[C@@](c2cccc(-c3cncc(Cl)c3)c2)(C2CC2)C1=O`, the AUC(0-t) at 6 h in data set [4] was 3.1 µM·h. The compound `CN1C(=N)NC(c2ccccc2)(c2cccc(F)c2)C1=O` (racemic) yielded a Ki at Beta-secretase 1 [1] of 720 nM. In the case of `CN1C(=O)C(c2ccccc2)(c2cccc(C#N)c2)N=C1N` (racemic), the affinity on Beta-secretase 1 [1], expressed as Ki, was 370 nM. On Beta-secretase 1 [1], `CN1C(=N)NC(c2cccc(-c3cccc(Cl)c3)c2)(C2CCC2)C1=O` (configuration not stated) came in with a Ki of 110 nM. In addition, half-maximal inhibition on Beta-secretase 1 [2] (IC50) required 2800 nM. With `CN1C(=N)NC(c2cccc(-c3cccnc3)c2)(C2CC2)C1=O` (configuration not stated), the results for the inhibition constant Ki on Beta-secretase 2 and at Beta-secretase 1 [1] were 360 nM and 270 nM, respectively. At Beta-secretase 1 [2], this compound showed an IC50 of 880 nM.

Compound `CC(C)C1(c2cccc(-c3cccc(Cl)c3)c2)NC(=N)N(C)C1=O` (configuration not stated) had a Ki on Beta-secretase 1 [1] of 320 nM. The compound further yielded an IC50 at Beta-secretase 1 [2] of 4600 nM. On to `CN1C(=N)NC(c2ccccc2)(c2cccc(-c3cncc(Cl)c3)c2)C1=O` (racemic), for which the Ki on Beta-secretase 1 [1] came to 90 nM. On to `Cc1cccc(C2(c3ccccc3)N=C(N)N(C)C2=O)c1` (racemic), for which, at Beta-secretase 1 [1], the Ki amounted to 550 nM.
